{
  "source": "patent US8440628B2",
  "about": "“Medical compositions containing ghrelin” (Daiichi Sankyo Company, Limited, priority 2002, dated 2013)",
  "key": {"[1]": {"type": "physicochemical", "description": "Human ghrelin, which is one of the ghrelins, was dissolved in the 0.05M glycine hydrochloride buffer solutions (pH 3.5) to obtain an aqueous solution containing human ghrelin with following five concentrations, which are applicable for medical usage.\n0.03 nmol/mL (0.1 μg/mL); 0.3 nmol/mL (1.0 μg/mL);\n3.0 nmol/mL (10.0 μg/mL); 0.3 μmol/mL (1.0 mg/mL);\nEach solutions were stored at 25±2° C. for 24 hours, and after storage, the HPLC analyses of each solutions were conducted to calculate the residual ratios from the concentration of human ghrelin. The changes of pH value were also examined to confirm no significant changes of pH in solutions occurred.\nThe residual ratio of the solution before storage was referred to as 100%, and the residual ratio of each solution after storage and the changes of pH value of each solution were summarized in the following Table 4."}, "[2]": {"assay": "Lyophilized powder for in situ preparation: solubility, content and pH after redissolving (Example 11)", "details": "solution just after preparation, before lyophilization", "experimental": "Human ghrelin was dissolved in 5% mannitol-0.05M glycine hydrochloride buffer solution (pH 3.5) with about 0.3 nmol/mL (1.0 μg/mL) concentration, and the human ghrelin concentration of this solution just after preparation was measured by HPLC method, and pH value of this solution was also measured. […] Then, this solution was lyophilized at −25° C. for 24 hours in vacuo, and the obtained powder was further dried at 20° C. for 24 hours in vacuo."}, "[3]": {"details": "h. ghrelin 0.03 nmol/mL in 0.05M glycine hydrochloride buffer (pH 3.5), after storage for 25° C./24 hours"}, "[4]": {"details": "h. ghrelin 0.03 nmol/mL in 0.05M glycine hydrochloride buffer (pH 3.5), just after preparation"}, "[5]": {"details": "h. ghrelin 0.3 nmol/mL in 0.05M glycine hydrochloride buffer (pH 3.5), after storage for 25° C./24 hours"}, "[6]": {"details": "h. ghrelin 0.3 nmol/mL in 0.05M glycine hydrochloride buffer (pH 3.5), just after preparation"}, "[7]": {"details": "h. ghrelin 3.0 nmol/mL in 0.05M glycine hydrochloride buffer (pH 3.5), after storage for 25° C./24 hours"}, "[8]": {"details": "h. ghrelin 3.0 nmol/mL in 0.05M glycine hydrochloride buffer (pH 3.5), just after preparation"}, "[9]": {"details": "h. ghrelin 0.3 μmol/mL in 0.05M glycine hydrochloride buffer (pH 3.5), after storage for 25° C./24 hours"}, "[10]": {"details": "h. ghrelin 0.3 μmol/mL in 0.05M glycine hydrochloride buffer (pH 3.5), just after preparation"}, "[11]": {"details": "h. ghrelin 3 μmol/mL in 0.05M glycine hydrochloride buffer (pH 3.5), after storage for 25° C./24 hours"}, "[12]": {"details": "h. ghrelin 3 μmol/mL in 0.05M glycine hydrochloride buffer (pH 3.5), just after preparation"}},
  "note": "Like-named read-outs stand apart in the source and are kept apart here.",
  "data": [
    {"smiles": "CCCCCCCC(=O)OC[C@H](NC(=O)[C@H](CO)NC(=O)CN)C(=O)N[C@@H](Cc1ccccc1)C(=O)N[C@@H](CC(C)C)C(=O)N[C@@H](CO)C(=O)N1CCC[C@H]1C(=O)N[C@@H](CCC(=O)O)C(=O)N[C@@H](Cc1c[nH]cn1)C(=O)N[C@@H](CCC(N)=O)C(=O)N[C@@H](CCCNC(=N)N)C(=O)N[C@H](C(=O)N[C@@H](CCC(N)=O)C(=O)N[C@@H](CCC(N)=O)C(=O)N[C@@H](CCCNC(=N)N)C(=O)N[C@@H](CCCCN)C(=O)N[C@@H](CCC(=O)O)C(=O)N[C@@H](CO)C(=O)N[C@@H](CCCCN)C(=O)N[C@@H](CCCCN)C(=O)N1CCC[C@H]1C(=O)N1CCC[C@H]1C(=O)N[C@@H](C)C(=O)N[C@@H](CCCCN)C(=O)N[C@@H](CC(C)C)C(=O)N[C@@H](CCC(N)=O)C(=O)N1CCC[C@H]1C(=O)N[C@@H](CCCNC(=N)N)C(=O)O)C(C)C", "note": "[Human ghrelin]", "values": [
      {"measurement": "Residual ratio", "setting": "[1]; [3]", "result": 62, "unit": "%"},
      {"measurement": "pH", "setting": "[1]; [3]", "result": 3.5},
      {"measurement": "Residual ratio", "setting": "[1]; [4]", "result": 100, "unit": "%"},
      {"measurement": "pH", "setting": "[1]; [4]", "result": 3.4},
      {"measurement": "Residual ratio", "setting": "[1]; [5]", "result": 98, "unit": "%"},
      {"measurement": "pH", "setting": "[1]; [5]", "result": 3.5},
      {"measurement": "Residual ratio", "setting": "[1]; [6]", "result": 100, "unit": "%"},
      {"measurement": "pH", "setting": "[1]; [6]", "result": 3.5},
      {"measurement": "Residual ratio", "setting": "[1]; [7]", "result": 98, "unit": "%"},
      {"measurement": "pH", "setting": "[1]; [7]", "result": 3.6},
      {"measurement": "Residual ratio", "setting": "[1]; [8]", "result": 100, "unit": "%"},
      {"measurement": "pH", "setting": "[1]; [8]", "result": 3.5},
      {"measurement": "Residual ratio", "setting": "[1]; [9]", "result": 101, "unit": "%"},
      {"measurement": "pH", "setting": "[1]; [9]", "result": 3.3},
      {"measurement": "Residual ratio", "setting": "[1]; [10]", "result": 100, "unit": "%"},
      {"measurement": "pH", "setting": "[1]; [10]", "result": 3.4},
      {"measurement": "Residual ratio", "setting": "[1]; [11]", "result": 101, "unit": "%"},
      {"measurement": "pH", "setting": "[1]; [11]", "result": 3.3},
      {"measurement": "Residual ratio", "setting": "[1]; [12]", "result": 100, "unit": "%"},
      {"measurement": "pH", "setting": "[1]; [12]", "result": 3.4},
      {"measurement": "pH value of the solution", "setting": "[2]", "result": 3.5}
    ]}
  ]
}
